Test results reported in the NIST ThermoML archive (doi:10.1016/j.fluid.2011.07.018).

Experiment: xn = mol fraction of the nth substance listed
Settings: 298.15 K, 101 kPa, Liquid; for speed of sound: Linear variable-path acoustic interferometer; for mass density: Vibrating tube method

Clc1ccccc1Cl [1,2-dichlorobenzene] + C1CCOC1
Settings	mass density [kg/m3]	speed of sound [m/s]
x2 = 0	1300.35	1269
x2 = 0.0327	1288.55	1274
x2 = 0.155	1244.23	1290
x2 = 0.3046	1189.35	1305
x2 = 0.4457	1135.03	1307
x2 = 0.5709	1084.3	1304
x2 = 0.6161	1065.67	1299
x2 = 0.6885	1034.31	1295
x2 = 0.7973	984.99	1283
x2 = 0.8425	963.65	1278
x2 = 0.8852	942.63	1274
x2 = 0.9451	911.72	1272

Clc1ccc(Cl)c(Cl)c1 [1,2,4-trichlorobenzene] + C1CCOC1
Settings	mass density [kg/m3]	speed of sound [m/s]
x2 = 0	1447.66	1272
x2 = 0.0358	1431.9	1303
x2 = 0.1451	1382.41	1326
x2 = 0.2456	1334.05	1346
x2 = 0.3483	1282.95	1355
x2 = 0.4617	1224.12	1352
x2 = 0.6012	1147.15	1339
x2 = 0.7076	1083.62	1327
x2 = 0.7639	1048.78	1320
x2 = 0.8162	1014.57	1313
x2 = 0.8743	975.21	1305
x2 = 0.9351	931.35	1300
x2 = 0.9642	909.82	1298

Cc1ccccc1Cl [2-chlorotoluene] + C1CCOC1
Settings	mass density [kg/m3]	speed of sound [m/s]
x2 = 0	1077.63	1295
x2 = 0.1234	1057.75	1324
x2 = 0.264	1034.49	1345
x2 = 0.3444	1020.53	1347
x2 = 0.4669	998.27	1348
x2 = 0.5809	976.32	1343
x2 = 0.7119	949.73	1331
x2 = 0.7706	937.14	1326
x2 = 0.8264	924.69	1318
x2 = 0.8858	910.9	1310
x2 = 0.9564	893.59	1298

C1CCOC1 [tetrahydrofuran] + Clc1ccccc1Cl
x1 = 1
Settings	mass density [kg/m3]	speed of sound [m/s]
–	882.09	1270

Cc1ccccc1[N+](=O)[O-] [2-nitrotoluene] + C1CCOC1
Settings	mass density [kg/m3]	speed of sound [m/s]
x2 = 0	1155.24	2112
x2 = 0.1021	1135.24	2120
x2 = 0.2146	1111.7	2034
x2 = 0.3019	1092.19	1939
x2 = 0.4211	1063.58	1791
x2 = 0.4509	1056.04	1754
x2 = 0.521	1037.67	1677
x2 = 0.6045	1014.59	1593
x2 = 0.7211	979.81	1495
x2 = 0.8014	953.93	1433
x2 = 0.9324	907.94	1325

Cc1cccc([N+](=O)[O-])c1 [3-nitrotoluene] + C1CCOC1
Settings	mass density [kg/m3]	speed of sound [m/s]
x2 = 0	1149.67	2100
x2 = 0.0914	1132.22	2093
x2 = 0.1522	1120.11	2029
x2 = 0.2026	1109.64	1969
x2 = 0.3146	1085.13	1847
x2 = 0.4209	1060.02	1719
x2 = 0.5476	1027.61	1588
x2 = 0.6024	1012.66	1542
x2 = 0.7519	968.47	1438
x2 = 0.8415	939.33	1380
x2 = 0.9324	907.47	1321

C1CCOC1 [tetrahydrofuran] + Cc1cccc(Cl)c1
x1 = 1
Settings	mass density [kg/m3]	speed of sound [m/s]
–	882.09	1270

C1CCOC1 [tetrahydrofuran] + Cc1ccccc1Cl
x1 = 1
Settings	mass density [kg/m3]	speed of sound [m/s]
–	882.09	1270

Cc1cccc(Cl)c1 [3-chlorotoluene] + C1CCOC1
Settings	mass density [kg/m3]	speed of sound [m/s]
x2 = 0	1066.01	1279
x2 = 0.0662	1055.82	1293
x2 = 0.1944	1036.15	1313
x2 = 0.2787	1022.98	1319
x2 = 0.3891	1004.96	1324
x2 = 0.5228	981.71	1325
x2 = 0.6399	960.03	1320
x2 = 0.7368	941.06	1313
x2 = 0.7972	928.35	1307
x2 = 0.8601	914.63	1300
x2 = 0.9208	900.75	1290
x2 = 0.945	895.28	1287
x2 = 0.9739	888.4	1282

C1CCOC1 [tetrahydrofuran] + Clc1cccc(Cl)c1
x1 = 1
Settings	mass density [kg/m3]	speed of sound [m/s]
–	882.09	1270

C1CCOC1 [tetrahydrofuran] + Cc1cccc([N+](=O)[O-])c1
x1 = 1
Settings	mass density [kg/m3]	speed of sound [m/s]
–	882.09	1270

C1CCOC1 [tetrahydrofuran] + Cc1ccc(Cl)cc1
x1 = 1
Settings	mass density [kg/m3]	speed of sound [m/s]
–	882.09	1270

Clc1cccc(Cl)c1 [1,3-dichlorobenzene] + C1CCOC1
Settings	mass density [kg/m3]	speed of sound [m/s]
x2 = 0	1282.82	1257
x2 = 0.0332	1272.22	1259
x2 = 0.1432	1234.54	1272
x2 = 0.272	1189.62	1276
x2 = 0.3809	1150.84	1277
x2 = 0.5198	1099.15	1276
x2 = 0.6244	1057.78	1275
x2 = 0.696	1027.92	1274
x2 = 0.8044	980.28	1270
x2 = 0.845	961.47	1265
x2 = 0.8852	941.79	1265
x2 = 0.942	912.92	1266

Cc1ccc(Cl)cc1 [4-chlorotoluene] + C1CCOC1
Settings	mass density [kg/m3]	speed of sound [m/s]
x2 = 0	1064.21	1296
x2 = 0.0653	1054.92	1305
x2 = 0.168	1040.16	1308
x2 = 0.3251	1015.77	1308
x2 = 0.4558	994.13	1304
x2 = 0.5489	977.7	1301
x2 = 0.6335	962.01	1296
x2 = 0.7021	948.73	1293
x2 = 0.7609	936.9	1288
x2 = 0.8226	923.96	1284
x2 = 0.906	905.08	1280
x2 = 0.941	896.99	1277

C1CCOC1 [tetrahydrofuran] + Cc1ccccc1[N+](=O)[O-]
x1 = 1
Settings	mass density [kg/m3]	speed of sound [m/s]
–	882.09	1270

C1CCOC1 [tetrahydrofuran] + Clc1ccc(Cl)c(Cl)c1
x1 = 1
Settings	mass density [kg/m3]	speed of sound [m/s]
–	882.09	1270
